The subject of one data set is Staphylococcus aureus. The data set can be described thus: MIC screening, broth microdilution (CLSI).
In another data set the test system is Haemophilus influenzae. Briefly: MIC screening, broth microdilution (CLSI).
Another data set has as its system Escherichia coli. The data set can be described thus: MIC screening, broth microdilution (CLSI).
The test system of another data set is Klebsiella pneumoniae. Briefly: MIC screening, broth microdilution (CLSI).
The test system of data set [1] is Acinetobacter calcoaceticus. The data set can be described thus: MIC screening, broth microdilution (CLSI).
Protocol: (§1) The minimum inhibition concentration (MIC) screening was performed with 14 bacterial strains and 4 compounds. The MICs were determined by the broth microdilution method according to the Clinical and Laboratory Standards Institute (CLSI) guidelines. The MIC screening was performed on 96-well plates containing the compounds in serial 2-fold dilutions from 64 to 0.06 μg/ml. The bacterial inoculations were prepared in cation-adjusted Mueller Hinton medium broth from cultures grown on appropriate agar plates which are prepared freshly every week. The growth controls and sterile controls were included in each assay plates. The assay plates were incubated in an ambient-air incubator at 35±2° C. for 16-20 hr (24 hr for MRSA), and bacterial growth was observed and recorded.
(§2) Compound stock solutions were prepared in 100% DMSO on the day of MIC screening and use immediately. Compound stock concentration=[(highest testing concentration)×103 μl/3 μl] (e.g. if the required highest testing concentration is 64 μg/ml in assay plates, stock concentration=64×103/3=2.2 mg/ml). The potency of testing compound is assumed as 100% unless otherwise stated whereas the potency of reference compound is calculated according to manufacturer's analysis data.
(§3) Eleven two-fold dilutions per compound were made then transferred 3 μl to each well of test plate. Final concentration of DMSO in the MIC screening is ˜3%.
(§4) B. Transfer colonies from fresh culture plates into 5 ml of saline with sterile loops and mix well. Measure and adjust turbidity to 0.5 McFarland barium sulphate standard using a turbidity meter. Alternatively, transfer 1-2 colonies into 500 μl of saline and adjust OD625 to ˜0.1 using a plate reader. […] Dilute bacterial inoculum 1:280 for Gram-positive and fastidious strains and 1:400 for Gram-negative strains into corresponding medium broth (CAMHB, CAMHB+3% lysed horse blood, HTM) (e.g. 35.6 μl of inoculum into 10 ml of CAMHB or 25 μl of inoculum into 10 ml of CAMHB). H. influenzae: HTM Streptococci: CAMHB+3% lysed horse blood Other strains in the panel: CAMHB 2.4. Prepare Assay Plates A. Add 100 μl of the bacterial inoculum to each well of the compound plates except wells B12, D12, F12 and H12. B. Add 100 μl of medium broth to wells B12, D12, F12 and H12 of the compound plates. […] Stack four plates together and cover with a sterile plate lid. Incubate in an ambient-air incubator at 35±2° C. for 16-20 hours (24 hours for MRSA). […] Perform Colony Counts A. Dilute the bacterial inoculum (0.5 McFarland) to a serial of 10-1 to 10-7 in saline solution (e.g. 100 μl bacterial inoculum+900 μl of saline). B. Spread 100 μl of each dilution (10-4, 10-5, 10-6, and 10-7) onto CAMHA plates in triplication, let the liquid soak into the agar for 10 minutes, invert the agar plates and incubate for 24 hr at 35±2° C. […] Record MICs and Calculate CFUs A. Open the compound plate layout in the compound management system, and check the assay plate barcode. B. Place the assay plate on the top of MIC reader, and adjust the magnification mirror to read each wells, record growth status as raw data. (Optional) Record photo image of each assay plates using high-speed high-resolution scanner. […] Determine MIC break points according to CLSI guideline. D. Count colonies and calculate CFU of bacterial inoculum.
Another data set concerns Pseudomonas aeruginosa. Briefly: MIC screening, broth microdilution (CLSI). (In broth dilution the organism is exposed to a series of concentrations in liquid medium.)
The next data set has as its system MRSA. The data set can be described thus: MIC screening, broth microdilution (CLSI).
A further data set has as its system Enterococci. The data set can be described thus: MIC screening, broth microdilution (CLSI).
The subject of another data set is Streptococci. The data set can be described thus: MIC screening, broth microdilution (CLSI).
The conditions of data set [2]: background statement; cited from earlier work.

Converted amounts (≈) assume the structure as drawn. Like-named read-outs stand apart in the source and are kept apart here.

Protocol for Enterococci: as §1
(§5) A. Revive bacterial strains from storage frozen (−80° C.) two days before the MIC screening. Streak onto surface of appropriate agar plates, and incubate the plates for 20-24 hr at 35±2° C. in an appropriate atmosphere.
Enterococci: TSA II, ambient air
(§6) B. Select 5-10 well-isolated colonies of similar morphology and restreak onto fresh agar plates using sterile loops. Incubate the plates for 20-24 hr at 35±2° C. in an appropriate atmosphere as above.
as §2, §3
B. Transfer colonies from fresh culture plates into 5 ml of saline with sterile loops and mix well. Measure and adjust turbidity to 0.5 McFarland barium sulphate standard using a turbidity meter. Alternatively, transfer 1-2 colonies into 500 μl of saline and adjust OD625 to ˜0.1 using a plate reader. C. Dilute bacterial inoculum 1:280 for Gram-positive and fastidious strains and 1:400 for Gram-negative strains into corresponding medium broth (CAMHB, CAMHB+3% lysed horse blood, HTM) (e.g. 35.6 μl of inoculum into 10 ml of CAMHB or 25 μl of inoculum into 10 ml of CAMHB). H. influenzae: HTM Streptococci: CAMHB+3% lysed horse blood Other strains in the panel: CAMHB 2.4. Prepare Assay Plates A. Add 100 μl of the bacterial inoculum to each well of the compound plates except wells B12, D12, F12 and H12. B. Add 100 μl of medium broth to wells B12, D12, F12 and H12 of the compound plates. C. Stack four plates together and cover with a sterile plate lid. Incubate in an ambient-air incubator at 35±2° C. for 16-20 hours (24 hours for MRSA). […] Perform Colony Counts A. Dilute the bacterial inoculum (0.5 McFarland) to a serial of 10-1 to 10-7 in saline solution (e.g. 100 μl bacterial inoculum+900 μl of saline). B. Spread 100 μl of each dilution (10-4, 10-5, 10-6, and 10-7) onto CAMHA plates in triplication, let the liquid soak into the agar for 10 minutes, invert the agar plates and incubate for 24 hr at 35±2° C. […] Record MICs and Calculate CFUs A. Open the compound plate layout in the compound management system, and check the assay plate barcode. B. Place the assay plate on the top of MIC reader, and adjust the magnification mirror to read each wells, record growth status as raw data. (Optional) Record photo image of each assay plates using high-speed high-resolution scanner. C. Determine MIC break points according to CLSI guideline. D. Count colonies and calculate CFU of bacterial inoculum.
Protocol for Escherichia coli: as §1, §2, §3, §4
Protocol for Haemophilus influenzae: as §1, §5
Haemophilus influenzae: chocolate agar, 5% CO2
as §6, §2, §3, §4
Protocol for Klebsiella pneumoniae: as §1, §2, §3, §4
Protocol for MRSA: The MICs were determined by the broth microdilution method according to the Clinical and Laboratory Standards Institute (CLSI) guidelines. The MIC screening was performed on 96-well plates containing the compounds in serial 2-fold dilutions from 64 to 0.06 μg/ml. The bacterial inoculations were prepared in cation-adjusted Mueller Hinton medium broth from cultures grown on appropriate agar plates which are prepared freshly every week. The growth controls and sterile controls were included in each assay plates. The assay plates were incubated in an ambient-air incubator at 35±2° C. for 16-20 hr (24 hr for MRSA), and bacterial growth was observed and recorded.
as §5, §6, §2, §3, §4
Protocol for Pseudomonas aeruginosa: as §1, §2, §3, §4
Protocol for Staphylococcus aureus: as §1, §2, §3, §4
Protocol for Streptococci: as §1, §5
Streptococci: TSA II, 5% CO2
as §6, §2, §3, §4

Take `C[C@H]1COc2c(N3CCN(C)CC3)c(F)cc3c(=O)c(C(=O)O)cn1c23` [Levofloxacin, reference compound]: the MIC in the data set with Staphylococcus aureus (ATCC29213, Staphylococcus aureus (ATCC 29213), Exp 1) is 0.5 µg/mL (≈ 1.38 µM); against Staphylococcus aureus (ATCC29213, Staphylococcus aureus (ATCC 29213), Exp 2) it was 0.25 µg/mL (≈ 0.692 µM); against Staphylococcus aureus (Staphylococcus aureus (Levofloxacin-resistant), Exp 1), 64 µg/mL (≈ 177 µM); against Staphylococcus aureus (Staphylococcus aureus (Levofloxacin-resistant), Exp 2), 64 µg/mL (≈ 177 µM); against Haemophilus influenzae, under 0.0625 µg/mL; with Haemophilus influenzae (Exp 2), under 0.0625 µg/mL. Also, the MIC is under 0.0625 µg/mL in the data set on Escherichia coli (Exp 1); under 0.0625 µg/mL in the data set with Escherichia coli (Exp 2); 1 µg/mL (≈ 2.77 µM) in the data set with Klebsiella pneumoniae; 1 µg/mL (≈ 2.77 µM) against Klebsiella pneumoniae (Exp 2); 4 µg/mL (≈ 11.1 µM) in data set [1]; 4 µg/mL (≈ 11.1 µM) in data set [1] (Exp 2). Also, the MIC in the data set with Pseudomonas aeruginosa is 1 µg/mL (≈ 2.77 µM); against Pseudomonas aeruginosa (Exp 2), 1 µg/mL (≈ 2.77 µM); in the data set with MRSA (Staphylococcus aureus (ATCC 43300), Exp 2) it was 0.25 µg/mL (≈ 0.692 µM); in the data set with MRSA (Staphylococcus aureus (MRSA, Erythromycin & clindamycin-resistant), Exp 2) it was 8 µg/mL (≈ 22.1 µM); in the data set with MRSA (Staphylococcus aureus, ATCC43300 / MRSA), 0.25 µg/mL (≈ 0.692 µM); in the data set with MRSA (Staphylococcus aureus, MRSA) it was 8 µg/mL (≈ 22.1 µM). For the same molecule, the MIC against Enterococci (Enterococcus faecalis, ATCC29212, Enterococcus faecalis (ATCC 29212), Exp 1) is 1 µg/mL (≈ 2.77 µM); in the data set with Enterococci (Enterococcus faecalis, ATCC29212, Enterococcus faecalis (ATCC 29212), Exp 2), 1 µg/mL (≈ 2.77 µM); against Enterococci (Enterococcus faecium, ATCC700221, Enterococcus faecium (ATCC 700221), Exp 1), over 64 µg/mL; in the data set with Enterococci (Enterococcus faecium, ATCC700221, Enterococcus faecium (ATCC 700221), Exp 2), over 64 µg/mL; in the data set on Streptococci (Streptococcus pneumoniae, ATCC49619, Streptococcus pneumoniae (ATCC 49619), Exp 1) it was 0.5 µg/mL (≈ 1.38 µM); with Streptococci (Streptococcus pneumoniae, ATCC49619, Streptococcus pneumoniae (ATCC 49619), Exp 2), 0.5 µg/mL (≈ 1.38 µM). Further, the MIC in the data set with Streptococci (Streptococcus pneumoniae, Streptococcus pneumoniae (Erythromycin-resistant), Exp 1) turned out to be 1 µg/mL (≈ 2.77 µM); in the data set on Streptococci (Streptococcus pneumoniae, Streptococcus pneumoniae (Erythromycin-resistant), Exp 2), 1 µg/mL (≈ 2.77 µM); with Streptococci (Streptococcus pyogenes, ATCC700942, Streptococcus pyogenes (ATCC 700942), Exp 1), 0.5 µg/mL (≈ 1.38 µM); in the data set on Streptococci (Streptococcus pyogenes, ATCC700942, Streptococcus pyogenes (ATCC 700942), Exp 2) it was 0.5 µg/mL (≈ 1.38 µM).

In the case of `Oc1ccc(/C=C/c2cc(O)cc(O)c2)cc1` [Resveratrol], in [2], the oral bioavailability result was “very poor oral bioavailability”.
